Data taken from patent publication US20250064941A1, “SIGLEC LIGANDS, CONJUGATES, AND METHODS OF USE THEREOF” (Osprey Biopharmaceuticals, Inc., priority 2023, published 2025).

Columns and labels:
cynomolgus Siglec-2/CD22 = cynomolgus Siglec-2/CD22 (Macaca fascicularis, UniProt A0A2K5WCZ6); assay: biochemical; type: binding; conditions: SPR, steady-state analysis; read-out: Affinity cyno CD22
Protocol: (§1) Prior to immobilization, CD22 proteins were treated with SialoExo (Genovis, Cat #G1-SM1-020) for 4 hours at 37° C. to remove native sialic acid residues.
Surface preparation for cyno CD22 protein consisted of amine coupling to Cytiva CM5 chip (Cytiva, Cat #BR100530) using the Cytiva amine coupling kit Type 2 (Cytiva, Cat #BR100633). Following the standard amine coupling protocols, EDC and NHS from the kit were mixed 1:1 and injected over flow cells 1 and 2. […] Any active carboxy groups were then capped with 1M Ethanolamine, pH 8.5 for 420s on flow cells 1 and 2.
(§2) Binding experiments of Siglec-ligand conjugated proteins or Siglec ligand compounds were performed on the surfaces prepared above in 10 mM HEPES, 150 mM NaCl, 0.05% Tween-20, pH 7.5, 1% DMSO as the running buffer. […] The compounds were then allowed to dissociate from the surface for 120 seconds. […] Solvent correction was performed using 0.5, 1, 1.5, and 2% DMSO spike into running buffer without DMSO. […] Data was analyzed using steady-state analysis in Biacore Insight Evaluation Software, version 3.0 for Siglec ligand compounds.

[1] = target: T1, mouse Siglec-2-Fc-Avi (CD22) (Mus musculus, UniProt P35329); assay: SPR binding affinity to mouse CD22; conditions: steady-state analysis
T1 construct: made in house
T1 sequence (P35329 22-708 limits assumed): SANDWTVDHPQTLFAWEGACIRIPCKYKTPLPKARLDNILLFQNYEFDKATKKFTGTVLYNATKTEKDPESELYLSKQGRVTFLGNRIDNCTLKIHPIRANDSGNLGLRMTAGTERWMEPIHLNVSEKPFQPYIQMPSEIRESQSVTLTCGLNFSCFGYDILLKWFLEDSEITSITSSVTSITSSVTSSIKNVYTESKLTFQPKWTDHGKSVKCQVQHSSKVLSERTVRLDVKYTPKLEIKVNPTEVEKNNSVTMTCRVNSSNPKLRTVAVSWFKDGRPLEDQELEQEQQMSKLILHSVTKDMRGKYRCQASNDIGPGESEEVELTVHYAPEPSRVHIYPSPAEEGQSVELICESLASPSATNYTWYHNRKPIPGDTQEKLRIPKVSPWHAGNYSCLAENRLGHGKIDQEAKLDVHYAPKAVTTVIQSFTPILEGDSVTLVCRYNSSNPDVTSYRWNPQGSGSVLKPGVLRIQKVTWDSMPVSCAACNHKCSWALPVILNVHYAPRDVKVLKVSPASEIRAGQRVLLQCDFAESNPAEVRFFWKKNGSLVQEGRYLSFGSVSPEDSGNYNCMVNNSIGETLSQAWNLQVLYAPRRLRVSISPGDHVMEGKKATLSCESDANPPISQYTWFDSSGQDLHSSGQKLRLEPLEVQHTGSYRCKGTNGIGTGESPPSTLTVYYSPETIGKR
Protocol: as §1
(§3) Capture of biotinylated CD22 constructs was performed using a Cytiva SA chip (BR100398) on a Biacore 8K instrument.
as §2

[2] = target: T2, human Siglec-2/CD22 protein (Homo sapiens, UniProt P20273); assay: SPR binding affinity to human CD22; conditions: steady-state analysis
T2 construct: purchased Acro Biosystems SI2-H82E3
T2 sequence (P20273 20-847): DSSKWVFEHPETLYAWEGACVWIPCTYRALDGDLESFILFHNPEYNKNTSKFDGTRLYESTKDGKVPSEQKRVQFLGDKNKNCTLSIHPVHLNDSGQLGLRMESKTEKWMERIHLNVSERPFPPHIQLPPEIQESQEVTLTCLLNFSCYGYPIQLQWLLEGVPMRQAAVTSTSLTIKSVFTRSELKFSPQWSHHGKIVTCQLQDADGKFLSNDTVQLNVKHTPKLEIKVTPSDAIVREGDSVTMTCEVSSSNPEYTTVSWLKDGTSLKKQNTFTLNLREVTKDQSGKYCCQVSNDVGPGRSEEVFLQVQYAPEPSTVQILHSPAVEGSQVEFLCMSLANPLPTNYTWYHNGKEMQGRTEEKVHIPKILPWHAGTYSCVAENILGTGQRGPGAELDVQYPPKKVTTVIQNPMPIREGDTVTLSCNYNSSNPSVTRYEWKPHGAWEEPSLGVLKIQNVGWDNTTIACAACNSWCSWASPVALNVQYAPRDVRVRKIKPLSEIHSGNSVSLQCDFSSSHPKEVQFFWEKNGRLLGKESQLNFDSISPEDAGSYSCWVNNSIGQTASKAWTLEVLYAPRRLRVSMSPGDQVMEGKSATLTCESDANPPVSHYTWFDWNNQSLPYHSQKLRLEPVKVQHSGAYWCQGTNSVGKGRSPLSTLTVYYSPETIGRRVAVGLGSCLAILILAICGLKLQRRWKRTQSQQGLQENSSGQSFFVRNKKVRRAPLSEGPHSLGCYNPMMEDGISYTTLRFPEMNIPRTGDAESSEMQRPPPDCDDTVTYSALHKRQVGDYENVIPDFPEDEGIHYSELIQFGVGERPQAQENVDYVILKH
Protocol: as §1, §3, §2

Chain of cynomolgus Siglec-2/CD22 (A0A2K5WCZ6 entry or part of it): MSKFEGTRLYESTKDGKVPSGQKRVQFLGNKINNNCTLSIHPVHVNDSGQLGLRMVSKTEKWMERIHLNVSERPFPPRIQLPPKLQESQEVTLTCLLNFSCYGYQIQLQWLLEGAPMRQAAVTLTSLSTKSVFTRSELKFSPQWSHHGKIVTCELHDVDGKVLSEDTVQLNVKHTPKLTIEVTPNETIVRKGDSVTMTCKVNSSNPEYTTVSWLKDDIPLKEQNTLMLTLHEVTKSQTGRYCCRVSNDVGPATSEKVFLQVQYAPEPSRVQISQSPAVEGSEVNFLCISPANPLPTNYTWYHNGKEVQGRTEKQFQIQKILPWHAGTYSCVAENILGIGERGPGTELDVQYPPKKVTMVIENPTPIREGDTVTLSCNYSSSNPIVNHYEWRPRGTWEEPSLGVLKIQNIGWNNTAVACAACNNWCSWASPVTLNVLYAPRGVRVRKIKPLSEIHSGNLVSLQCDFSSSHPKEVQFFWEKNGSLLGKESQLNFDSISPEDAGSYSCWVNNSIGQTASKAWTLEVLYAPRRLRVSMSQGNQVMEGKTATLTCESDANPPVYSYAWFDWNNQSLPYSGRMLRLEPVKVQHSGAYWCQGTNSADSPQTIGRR

SMILES: C#CCOCCCCCCO[C@]1(C(=O)O)C[C@H](O)[C@@H](NC(=O)CO)[C@H]([C@H](O)[C@H](O)CNC(=O)Cc2ccc(-c3ccc4[nH]cc(C)c4c3)cc2)O1 [Compound 1, (2R,4S,5R,6R)-6-((1R,2R)-1,2-dihydroxy-3-(2-(4-(3-methyl-1H-indol-5-yl)phenyl)acetamido)propyl)-4-hydroxy-5-(2-hydroxyacetamido)-2-((6-(prop-2-yn-1-yloxy)hexyl)oxy)tetrahydro-2H-pyran-2-carboxylic acid]
- Kd (cynomolgus Siglec-2/CD22): < 1000 nM
- Kd [1]: < 1000 nM
- Kd [2]: < 1000 nM

SMILES: C#CCOCCOCCO[C@]1(C(=O)O)C[C@H](O)[C@@H](NC(=O)CO)[C@H]([C@H](O)[C@H](O)CNC(=O)Cc2ccc(-c3ccc4[nH]ccc4c3)cc2)O1 [Compound 4, (2R,4S,5R,6R)-6-((1R,2R)-3-(2-(4-(1H-indol-5-yl)phenyl)acetamido)-1,2-dihydroxypropyl)-4-hydroxy-5-(2-hydroxyacetamido)-2-(2-(2-(prop-2-yn-1-yloxy)ethoxy)ethoxy)tetrahydro-2H-pyran-2-carboxylic acid]
- Kd (cynomolgus Siglec-2/CD22): < 1000 nM
- Kd [1]: < 1000 nM
- Kd [2]: < 1000 nM

SMILES: C#CCOCCCCCCO[C@]1(C(=O)O)C[C@H](O)[C@@H](NC(=O)CO)[C@H]([C@H](O)[C@H](O)CNC(=O)Cc2ccc3cc[nH]c3c2)O1 [Compound 5, (2R,4S,5R,6R)-6-((1R,2R)-3-(2-(1H-indol-6-yl)acetamido)-1,2-dihydroxypropyl)-4-hydroxy-5-(2-hydroxyacetamido)-2-((6-(prop-2-yn-1-yloxy)hexyl)oxy)tetrahydro-2H-pyran-2-carboxylic acid]
- Kd (cynomolgus Siglec-2/CD22): < 1000 nM
- Kd [1]: 1000 to 10000 nM
- Kd [2]: < 1000 nM

SMILES: C#CCOCCCCCCO[C@]1(C(=O)O)C[C@H](O)[C@@H](NC(=O)CO)[C@H]([C@H](O)[C@H](O)CNC(=O)Cc2ccc3[nH]ccc3c2)O1 [Compound 6, (2R,4S,5R,6R)-6-((1R,2R)-3-(2-(1H-indol-5-yl)acetamido)-1,2-dihydroxypropyl)-4-hydroxy-5-(2-hydroxyacetamido)-2-((6-(prop-2-yn-1-yloxy)hexyl)oxy)tetrahydro-2H-pyran-2-carboxylic acid]
- Kd (cynomolgus Siglec-2/CD22): < 1000 nM
- Kd [1]: 1000 to 10000 nM
- Kd [2]: < 1000 nM

SMILES: C#CCCOc1ccc(CO[C@]2(C(=O)O)C[C@H](O)[C@@H](NC(=O)CO)[C@H]([C@H](O)[C@H](O)CNC(=O)Cc3ccc4[nH]c(=O)[nH]c4c3)O2)cc1 [Compound 7, (2R,4S,5R,6R)-2-((4-(but-3-yn-1-yloxy)benzyl)oxy)-6-((1R,2R)-1,2-dihydroxy-3-(2-(2-oxo-2,3-dihydro-1H-benzo[d]imidazol-5-yl)acetamido)propyl)-4-hydroxy-5-(2-hydroxyacetamido)tetrahydro-2H-pyran-2-carboxylic acid]
- Kd (cynomolgus Siglec-2/CD22): > 10000 nM
- Kd [1]: > 10000 nM
- Kd [2]: 1000 to 10000 nM

SMILES: C#CCCOc1ccc(CO[C@]2(C(=O)O)C[C@H](O)[C@@H](NC(=O)CO)[C@H]([C@H](O)[C@H](O)CNC(=O)Cc3ccc4nc[nH]c4c3)O2)cc1 [Compound 8, (2R,4S,5R,6R)-6-((1R,2R)-3-(2-(1H-benzo[d]imidazol-6-yl)acetamido)-1,2-dihydroxypropyl)-2-((4-(but-3-yn-1-yloxy)benzyl)oxy)-4-hydroxy-5-(2-hydroxyacetamido)tetrahydro-2H-pyran-2-carboxylic acid]
- Kd (cynomolgus Siglec-2/CD22): 1000 to 10000 nM
- Kd [1]: 1000 to 10000 nM
- Kd [2]: 1000 to 10000 nM

SMILES: C#CCCOc1ccc(CO[C@]2(C(=O)O)C[C@H](O)[C@@H](NC(=O)CO)[C@H]([C@H](O)[C@H](O)CNC(=O)Cc3ccc4nn[nH]c4c3)O2)cc1 [Compound 9, (2R,4S,5R,6R)-6-((1R,2R)-3-(2-(1H-benzo[d][1,2,3]triazol-6-yl)acetamido)-1,2-dihydroxypropyl)-2-((4-(but-3-yn-1-yloxy)benzyl)oxy)-4-hydroxy-5-(2-hydroxyacetamido)tetrahydro-2H-pyran-2-carboxylic acid]
- Kd (cynomolgus Siglec-2/CD22): 1000 to 10000 nM
- Kd [1]: 1000 to 10000 nM
- Kd [2]: 1000 to 10000 nM

SMILES: C#CCCOc1ccc(CO[C@]2(C(=O)O)C[C@H](O)[C@@H](NC(=O)CO)[C@H]([C@H](O)[C@H](O)CNC(=O)Cc3ccc4cn[nH]c4c3)O2)cc1 [Compound 10, (2R,4S,5R,6R)-6-((1R,2R)-3-(2-(1H-indazol-6-yl)acetamido)-1,2-dihydroxypropyl)-2-((4-(but-3-yn-1-yloxy)benzyl)oxy)-4-hydroxy-5-(2-hydroxyacetamido)tetrahydro-2H-pyran-2-carboxylic acid]
- Kd (cynomolgus Siglec-2/CD22): 1000 to 10000 nM
- Kd [1]: 1000 to 10000 nM
- Kd [2]: 1000 to 10000 nM

SMILES: C#CCOCCOCCO[C@]1(C(=O)O)C[C@H](O)[C@@H](NC(=O)CO)[C@H]([C@H](O)[C@H](O)CNC(=O)Cc2ccc3c(c2)CC(=O)N3)O1 [Compound 11, (2R,4S,5R,6R)-6-((1R,2R)-1,2-dihydroxy-3-(2-(2-oxoindolin-5-yl)acetamido)propyl)-4-hydroxy-5-(2-hydroxyacetamido)-2-(2-(2-(prop-2-yn-1-yloxy)ethoxy)ethoxy)tetrahydro-2H-pyran-2-carboxylic acid]
- Kd (cynomolgus Siglec-2/CD22): > 10000 nM
- Kd [1]: > 10000 nM
- Kd [2]: 1000 to 10000 nM

SMILES: C#CCOCCOCCO[C@]1(C(=O)O)C[C@H](O)[C@@H](NC(=O)CO)[C@H]([C@H](O)[C@H](O)CNC(=O)Cc2ccc3c(c2)NC(=O)C3)O1 [Compound 12, (2R,4S,5R,6R)-6-((1R,2R)-1,2-dihydroxy-3-(2-(2-oxoindolin-6-yl)acetamido)propyl)-4-hydroxy-5-(2-hydroxyacetamido)-2-(2-(2-(prop-2-yn-1-yloxy)ethoxy)ethoxy)tetrahydro-2H-pyran-2-carboxylic acid]
- Kd (cynomolgus Siglec-2/CD22): > 10000 nM
- Kd [2]: 1000 to 10000 nM

SMILES: C#CCOCCOCCO[C@]1(C(=O)O)C[C@H](O)[C@@H](NC(=O)CO)[C@H]([C@H](O)[C@H](O)CNC(=O)Cc2ccc(-c3ccncc3)cc2)O1 [Compound 72, (2R,4S,5R,6R)-6-((1R,2R)-1,2-dihydroxy-3-(2-(4-(pyridin-4-yl)phenyl)acetamido)propyl)-4-hydroxy-5-(2-hydroxyacetamido)-2-(2-(2-(prop-2-yn-1-yloxy)ethoxy)ethoxy)tetrahydro-2H-pyran-2-carboxylic acid]
- Kd (cynomolgus Siglec-2/CD22): > 10000 nM
- Kd [2]: 1000 to 10000 nM

SMILES: CC(=O)NCCOCCOCCOCCOCCNC(=O)CCCCCCO[C@]1(C(=O)O)C[C@H](O)[C@@H](NC(C)=O)[C@H]([C@H](O)[C@H](O)CNC(=O)c2cccc(Cl)c2)O1 [Compound 270, (2R,4S,5R,6R)-5-acetamido-6-((1R,2R)-3-(3-chlorobenzamido)-1,2-dihydroxypropyl)-2-((2,19-dioxo-6,9,12,15-tetraoxa-3,18-diazapentacosan-25-yl)oxy)-4-hydroxytetrahydro-2H-pyran-2-carboxylic acid]
- Kd [1]: > 10000 nM
- Kd [2]: 1000 to 10000 nM
